Measurements: US11884675B2, “Heterocyclic compounds as triggering receptor expressed on myeloid cells 2 agonists and methods of use” (AMGEN INC., priority 2020, dated 2024)

Biological target: hTREM2 (Homo sapiens, UniProt Q9NZC2)
Experiment: TREM2 agonist potency by Syk phosphorylation (AlphaLisa) in HEK293T-hTREM2 cells, used for Examples 306-429
Type: cell-based
Design: expressed in transfected cells; host or cells: HEK293T (HEK293T-hTREM2 cells)
Details: HEK293 Cells
Method: In vitro Measurement of Triggering Receptor Expressed on Myeloid Cells 2 activity using cellular phosphorylation of Spleen Tyrosine Kinase (“Syk”) Assays used for Examples 306-429
Measurement of TREM2 agonist potency was done using a HEK cell line expressing human TREM2 and DAP12 (HEK293T-hTREM2 cells). Binding of small molecules to, and activation of, TREM2 increases the phosphorylation of Syk. The resultant levels of Syk phosphorylation were measured using a commercial AlphaLisa reagent kit. To perform the assay, HEK-hTREM2 cells were plated at 14,000 cells per well in a 384 well plate, in 25 μL, of complete growth media and incubated at 37° C., 5% CO2 for 20-24 hours. Prior to the assay, test compounds were diluted in the 384 well plates in assay buffer and allowed to equilibrate for 30 minutes. Growth media was removed from cell plates by inversion on blotting paper, and 25 μL of test compounds in assay buffer was added to cells. Cells were incubated for 45 minutes at room temperature. After 45 minutes, assay buffer was removed and 10 μL of lysis buffer was added. Plates were shaken for 20 minutes at 350 RPM at room temperature. After complete lysis, AlphaLisa reagents were added to the lysate, and fluourescence intensity was measured using a Perkin Elmer Envision plate reader. Intensities were used to generate a standard curve, and % activation was calculated. Curve fitting was performed using Prism v9 software, log(agonist) vs response-variable slope (four parameters), and EC50s were calculated from the curve fit.
The results presented in Table 20 have been generated with the in vitro assay described above for Examples 306-429. This assay may be used to test any of the compounds described herein to assess and characterize a compound's ability to act as an agonist of TREM2.

hTREM2, sequence (Q9NZC2 19-230): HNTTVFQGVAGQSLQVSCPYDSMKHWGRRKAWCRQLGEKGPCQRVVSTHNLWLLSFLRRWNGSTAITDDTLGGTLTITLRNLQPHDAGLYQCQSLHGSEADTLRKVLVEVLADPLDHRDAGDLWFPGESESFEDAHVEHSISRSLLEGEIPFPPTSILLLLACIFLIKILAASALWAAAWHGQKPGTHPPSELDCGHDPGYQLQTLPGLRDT
hTREM2, sequence (O43914 22-113 partner): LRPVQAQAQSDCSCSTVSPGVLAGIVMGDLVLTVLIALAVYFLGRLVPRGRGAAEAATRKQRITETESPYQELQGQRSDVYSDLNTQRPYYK

Structure (SMILES) | EC50 [nM]
Cc1cc([C@H]2C[C@@H](c3nc(-c4ccc(Cl)cc4F)c4ccc(C)nc4n3)CCO2)ccn1 (racemic) [Example 325, 4-(4-chloro-2-fluorophenyl)-7-methyl-2-(2-(2-methylpyridin-4-yl)tetrahydro-2H-pyran-4-yl)pyrido[2,3-d]pyrimidine] | ≤ 50
Cc1cnc2c(C34CC(C(F)(F)F)(C3)C4)nc(N3C[C@H](C)O[C@@H](c4cnn(C5CC5)c4)C3)nc2n1 (racemic) [Example 355, 2-(1-cyclopropyl-1H-pyrazol-4-yl)-6-methyl-4-(7-methyl-4-(3-(trifluoromethyl)bicyclo[1.1.1]pentan-1-yl)pteridin-2-yl)morpholine] | 50 to 500
Cc1cnc2c(-c3ccc(F)cc3F)nc(N3C[C@H](C)O[C@@H](c4cnn(C5CC5)c4)C3)cc2n1 (racemic) [Example 361, 2-(1-cyclopropyl-1H-pyrazol-4-yl)-4-(5-(2,4-difluorophenyl)-2-methylpyrido[3,4-b]pyrazin-7-yl)-6-methylmorpholine] | 50 to 500
Cc1cnc2c(-c3ccc(F)cc3F)nc(N3C[C@@H](C)O[C@@H](c4cnn(C5CC5)c4)C3)cc2n1 (racemic) [Example 362, 2-(1-cyclopropyl-1H-pyrazol-4-yl)-4-(5-(2,4-difluorophenyl)-2-methylpyrido[3,4-b]pyrazin-7-yl)-6-methylmorpholine] | ≤ 50
Cc1cnc2c(-c3ccc(F)cc3F)nc(N3C[C@H](C)O[C@@H](c4cnn(C5CC5)c4)C3)nc2n1 (racemic) [Example 370, 2-(1-cyclopropyl-1H-pyrazol-4-yl)-4-(4-(2,4-difluorophenyl)-7-methylpteridin-2-yl)-6-methylmorpholine] | 50 to 500
Cc1cnc2c(-c3ccc(F)cc3F)nc(N3C[C@@H](C)O[C@@H](c4cnn(C5CC5)c4)C3)nc2n1 (racemic) [Example 371, 2-(1-cyclopropyl-1H-pyrazol-4-yl)-4-(4-(2,4-difluorophenyl)-7-methylpteridin-2-yl)-6-methylmorpholine] | ≤ 50

Next, values leading:

EC50 [nM] | Structure (SMILES)
≤ 50 | Cc1cc(C2CC(c3cc4nc(C)c(C)nc4c([C@]45C[C@](C(F)(F)F)(C4)C5)n3)CCO2)ccn1 (mixture of isomers) [Example 319, 2,3-dimethyl-7-(2-(2-methylpyridin-4-yl)tetrahydro-2H-pyran-4-yl)-5-(3-(trifluoromethyl)bicyclo[1.1.1]pentan-1-yl)pyrido[3,4-b]pyrazine]
≤ 50 | Cc1cc([C@H]2C[C@@H](c3nc(-c4ccc(F)cc4F)c4ccc(C)nc4n3)CCO2)ccn1 (racemic) [Example 323, 4-(2,4-difluorophenyl)-7-methyl-2-(2-(2-methylpyridin-4-yl)tetrahydro-2H-pyran-4-yl)pyrido[2,3-d]pyrimidine]
≤ 50 | Cc1nc2cc(N3C[C@H](C)O[C@@H](c4cnn(C5CC5)c4)C3)nc(-c3ccc(F)cc3F)c2nc1C (racemic) [Example 357, 2-(1-cyclopropyl-1H-pyrazol-4-yl)-4-(5-(2,4-difluorophenyl)-2,3-dimethylpyrido[3,4-b]pyrazin-7-yl)-6-methylmorpholine]
≤ 50 | Cc1nc2cc(N3C[C@@H](C)O[C@@H](c4cnn(C5CC5)c4)C3)nc(-c3ccc(F)cc3F)c2nc1C (racemic) [Example 358, 2-(1-cyclopropyl-1H-pyrazol-4-yl)-4-(5-(2,4-difluorophenyl)-2,3-dimethylpyrido[3,4-b]pyrazin-7-yl)-6-methylmorpholine]
50 to 500 | Cc1cnc2c(-c3ccc(Cl)cc3F)nc(N3C[C@@H](C)O[C@@H](c4cnn(C5CC5)c4)C3)cc2n1 (racemic) [Example 368, 4-(5-(4-chloro-2-fluorophenyl)-2-methylpyrido[3,4-b]pyrazin-7-yl)-2-(1-cyclopropyl-1H-pyrazol-4-yl)-6-methylmorpholine]
≤ 50 | Cc1nc2nc(N3C[C@H](C)O[C@@H](c4cnn(C5CC5)c4)C3)nc(-c3ccc(Cl)cc3F)c2nc1C (racemic) [Example 372, 4-(4-(4-chloro-2-fluorophenyl)-6,7-dimethylpteridin-2-yl)-2-(1-cyclopropyl-1H-pyrazol-4-yl)-6-methylmorpholine]
